≈ marks a conversion by molar mass, not a printed value. Read-outs that look alike come from different tables or passages of the source. Positions of bridges follow the written chain, without caps; N, C: chain ends. Non-standard residues stand in square brackets, D forms with d. Residues, ends and D or L forms follow the SMILES beside them. Lys(N3) = [N-]=[N+]=NCCCC[C@H](N)C(=O)O; 2Nal = N[C@@H](Cc1ccc2ccccc2c1)C(=O)O; R8 = C=CCCCCCC[C@@](C)(N)C(=O)O; αMeE = C[C@](N)(CCC(=O)O)C(=O)O; Cba = N[C@@H](CC1CCC1)C(=O)O; S5 = C=CCCC[C@](C)(N)C(=O)O; Ahx = NCCCCCC(=O)O; βAla = NCCC(=O)O
How the values were obtained:
human Mdm2 1–125 = target: T1, human Mdm2 1–125 (Homo sapiens, UniProt Q00987); assay: Mdm2 binding by competitive fluorescence anisotropy assay (FP binding); conditions: read-out: FP binding assay KD
T1 construct: GST (N); His6 (internal); TEV cleavage site (ENLYFQG) (internal); made in house; host or cells: BL21 (DE3) Rosetta T1R Escherichia coli
Description: The TEV (tobacco etch virus) cleavage site was changed from ENLYFQS to ENLYFQG to give a fusion protein with the following sequence:
[P] is the protein concentration (Mdm2), [L] is the labeled peptide concentration, r is the anisotropy measured, r0 is the anisotropy of the free peptide, rb is the anisotropy of the Mdm2–FAM-labeled peptide complex, Kd is the dissociation constant, [L]t is the total FAM labeled peptide concentration, and [P]t is the total Mdm2 concentration. […] This value was then used to determine apparent Kd values of the respective competing ligands in subsequent competition assays in fluorescence anisotropy experiments.
The competing molecules were then titrated against the complex of the FAM-labeled peptide and protein. Apparent Kd values were determined by fitting the experimental data to equations shown below:2 r=ro+(rb−ro)×2(d^2−3e)cos(θ/3)−9/3Kd1+2(d^2−3e)cos(θ/3)−d 3 d=Kd1+Kd2+[L]st+[L]t−Pt 4 e=Lt−PtKd1+Lst+PtKd2+Kd1Kd2 5 f=−Kd1Kd2[P]t 6 θ=arcos−2d^3+9de−27f/2(d^2−3e)^3
[L]st and [L]t denote labeled ligand and total unlabeled ligand input concentrations, respectively. Kd2 is the dissociation constant of the interaction between the unlabeled ligand and the protein. In all competition experiments, it is assumed that [P]t > [L]st, otherwise considerable amounts of free labeled ligand would always be present and would interfere with measurements. […] The FAM-labeled peptide was dissolved in dimethyl sulfoxide (DMSO) at 1 mM and diluted into experimental buffer. Readings were carried out with an Envision Multilabel Reader (PerkinElmer). […] Curve-fitting was carried out using Prism 4.0 (GraphPad). […] Negative control titrations of the ligands under investigation were also carried out with the fluorescently labeled peptide (in the absence of Mdm2) to ensure no interactions were occurring between the ligands and the FAM-labeled peptide. […] Measurements were taken a minimum of three times (biological replicates) and values are reported as geometric means of the replicates.

[1] = system: p53 responsive β-lactamase reporter in HCT116 cells; assay: cells; type: cell-based; conditions: read-out: p53 reporter assay EC50
In short: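 Read-out used the ToxBLAzer Dual Screen for β-lactamase driven by a stably integrated p53-responsive reporter. Assay: 8000 HCT116 cells per well at 0.5% final DMSO. Reported numbers are geometric means over a minimum of three biological replicates.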

[2] = system: Jump-In T-REx CHO-K1 BLA cells; assay: cells; type: cell-based; conditions: for EC50: read-out: TETCHO: Counterscreen EC50
[3] = Lactate dehydrogenase (LDH) release assay; type: cell-based
In short: (§1)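 Membrane damage measured as lactate dehydrogenase release (CytoTox-ONE kit) from p53-responsive β-lactamase reporter HCT116 cells plated at 8000 per well. Final DMSO 0.5%; geometric mean reported from a minimum of three biological replicates.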

HCT116 cells = assay: Lactate dehydrogenase (LDH) release assay; type: cell-based
In short: as §1

Ca Ski cell line = conditions: 72 h
In short: (§2)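 Compound dilution series (10 points, 3-fold, 10 mM top stock in DMSO) tested on overnight-plated Ca Ski cells in RPMI1640/10% FBS and on blasticidin-selected p53RE-bla HCT-116 cells in McCoy's 5A; read-out was CellTiter-Glo 2.0 luminescence after room-temperature equilibration.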

[4] = system: CellSensor p53RE-bla HCT-116 Cell Line; conditions: 72 h
In short: as §2

in vitro = conditions: Nanoclick permeability assay EC50
In short: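 Azido-peptide permeability was read as loss of NanoBRET signal (donor 450 nm, acceptor 610 nm) after adding NanoBret618-azide at 10 μM final.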

[5] = Experimental LogD (partition coefficient); conditions: for logD: not stated, Partition Coeff LogD
[6] = Solubility assay (kinetic solubility, PBS pH 7); type: physicochemical; conditions: for solubility kinetic: read-out: Solubility
In short: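 Quantitation uses an external standard at 100 µM, prepared from 10 mM stock in acetonitrile:methanol:DMSO (10:80:10). Solubility (µM) = (peak area of sample ÷ peak area of standard) × standard concentration.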

EPSA = type: physicochemical
[7] = pH 7, aqueous buffer, kinetic from dmso stock, pH 7, PBS

T1 sequence (Q00987 with tags, fused parts or gaps): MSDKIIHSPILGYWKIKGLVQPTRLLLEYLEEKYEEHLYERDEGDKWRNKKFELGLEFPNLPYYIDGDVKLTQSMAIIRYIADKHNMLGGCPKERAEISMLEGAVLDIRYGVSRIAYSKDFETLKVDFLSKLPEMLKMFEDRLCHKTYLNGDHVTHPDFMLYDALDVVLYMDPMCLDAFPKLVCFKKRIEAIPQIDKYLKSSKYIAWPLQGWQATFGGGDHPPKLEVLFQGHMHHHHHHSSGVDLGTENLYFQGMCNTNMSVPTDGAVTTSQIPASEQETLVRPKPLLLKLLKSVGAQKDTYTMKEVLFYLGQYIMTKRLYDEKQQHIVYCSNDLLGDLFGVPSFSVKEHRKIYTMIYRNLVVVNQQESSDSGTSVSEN

Structure (SMILES)	Kd (human Mdm2 1–125)	EC50 ([1]; 0% FBS 4Hr)	TETCHO: Counterscreen % Effect ([2]; 0% FBS 4Hr)	EC50 ([2]; 0% FBS 4Hr)	EC50 ([3]; LDH: Cytotoxicity assay EC50)	LDH: Cytotoxicity assay % Effect (HCT116 cells)	EC50 (Ca Ski cell line)	EC50 [4]	cell entry EC50 (in vitro)	logD [5]	solubility kinetic [6, 7]	EPSA (EPSA; EPSA)	EC50 ([3]; LDH: Cytotoxicity assay: EC50)	also measured
CC(=O)N[C@@H](CCCCN)C(=O)N[C@@H](CCCCN)C(=O)N[C@@H](CCCCN)C(=O)NCCCCCC(=O)N[C@H](C(=O)N[C@@H](CO)C(=O)N[C@@H](Cc1ccccc1)C(=O)N[C@]1(C)CCCCCCC=CCCC[C@@](C)(C(=O)N[C@@H](CCC(=O)O)C(=O)N[C@@H](CC(N)=O)C(=O)N[C@@H](Cc2ccccc2)C(N)=O)NC(=O)[C@H](CC(C)C)NC(=O)[C@H](CC(C)C)NC(=O)[C@H](C)NC(=O)[C@H](Cc2c[nH]c3ccccc23)NC(=O)[C@H](Cc2ccc(O)cc2)NC(=O)[C@H](CCC(=O)O)NC1=O)[C@@H](C)O [MP-5364] (Ac-KKK[Ahx]TSF[R8]EYWALL[S5]ENF-NH2; staple 8-15)	0.0391 µM	2.55 µM	62.33%	31.9 µM	> 50 µM	–	–	–	–	–	–	–	–	EC50 ([1]; 0% FBS 16Hr): 4.96 µM; TETCHO: Counterscreen % Effect ([2]; 0% FBS 16Hr): 3.12%
CC(=O)N[C@H](C(=O)N[C@@H](CO)C(=O)N[C@@H](Cc1ccc2ccccc2c1)C(=O)N[C@]1(C)CCCCCCC=CCCC[C@@](C)(C(=O)N[C@@H](CCC(=O)O)C(N)=O)NC(=O)[C@H](CC(C)C)NC(=O)[C@H](CC(C)C)NC(=O)[C@H](C)NC(=O)[C@H](Cc2c[nH]c3ccccc23)NC(=O)[C@H](Cc2ccc(O)cc2)NC(=O)[C@H](CCC(=O)O)NC1=O)[C@@H](C)O [MP-146] (Ac-TS[2Nal][R8]EYWALL[S5]E-NH2; staple 4-11)	0.499 µM	43.3 µM	1.205%	> 50 µM	> 50 µM	16.49%	–	–	–	–	–	–	–	–
CC(=O)N[C@H](C(=O)N[C@@H](CO)C(=O)N[C@@H](Cc1ccc2ccccc2c1)C(=O)N[C@]1(C)CCCCCCC=CCCC[C@@](C)(C(N)=O)NC(=O)[C@H](CC(C)C)NC(=O)[C@H](CC(C)C)NC(=O)[C@H](C)NC(=O)[C@H](Cc2c[nH]c3ccccc23)NC(=O)[C@H](Cc2ccc(O)cc2)NC(=O)[C@H](CCC(=O)O)NC1=O)[C@@H](C)O [MP-145] (Ac-TS[2Nal][R8]EYWALL[S5]-NH2; staple 4-11)	4.33 µM	23.8 µM	30.02%	> 50 µM	36.5 µM	48.85%	–	–	–	–	–	–	–	–
CC(=O)N[C@H](C(=O)N[C@@H](CO)C(=O)N[C@@H](Cc1ccccc1)C(=O)NC(C)(C)C(=O)N[C@@H](CCC(=O)O)C(=O)N[C@@H](Cc1ccc(O)cc1)C(=O)N[C@@H](Cc1c[nH]c2ccccc12)C(=O)N[C@@H](C)C(=O)N[C@@H](CC(C)C)C(=O)N[C@@H](CC(C)C)C(=O)NC(C)(C)C(N)=O)[C@@H](C)O [MP-153]	0.133 µM	34.2 µM	16.18%	> 50 µM	> 50 µM	0.7534%	–	–	–	–	–	–	–	–
CC(=O)N[C@@H](CCCCN=[N+]=[N-])C(=O)NCCC(=O)N[C@@H](CC(C)C)C(=O)N[C@H](C(=O)N[C@@H](Cc1ccccc1)C(=O)N[C@]1(C)CCCCCCC=CCCC[C@@](C)(C(=O)N[C@@H](CO)C(=O)N[C@@H](C)C(=O)N[C@@H](C)C(N)=O)NC(=O)[C@H](CC2CCC2)NC(=O)[C@H](CCC(N)=O)NC(=O)[C@H](C)NC(=O)[C@H](Cc2c[nH]c3ccccc23)NC(=O)[C@H](CCC(=O)O)NC(=O)[C@H](CCC(=O)O)NC1=O)[C@@H](C)O [MP-842]	–	–	–	–	–	–	> 49.8 µM	23.4 µM	0.297 µM	2.25	157 µM (≈ 304 µg/mL)	216 A^2	> 50.7 µM	–
CC(=O)N[C@@H](CCCCN=[N+]=[N-])C(=O)NCCC(=O)N[C@@H](CC(C)C)C(=O)N[C@H](C(=O)N[C@@H](Cc1ccccc1)C(=O)N[C@]1(C)CCCCCCC=CCCC[C@@](C)(C(=O)N[C@@H](C)C(=O)N[C@@H](C)C(=O)N[C@@H](Cc2ccccc2)C(=O)N[C@@H](C)C(=O)N[C@@](C)(CCC(=O)O)C(=O)N[C@@H](Cc2ccccc2)C(N)=O)NC(=O)[C@H](CC2CCC2)NC(=O)[C@H](CCC(N)=O)NC(=O)[C@H](C)NC(=O)[C@H](Cc2c[nH]c3ccccc23)NC(=O)[C@H](Cc2ccc(O)cc2)NC(=O)[C@H](CCC(=O)O)NC1=O)[C@@H](C)O [MP-229] (Ac-[Lys(N3)][βAla]LTF[R8]EYWAQ[Cba][S5]AAFA[αMeE]F-NH2; staple 6-13)	–	–	–	–	–	–	19.9 µM	2.32 µM	2.09 µM	2.93	153 µM (≈ 366 µg/mL)	253 A^2	> 50.7 µM	solubility kinetic [6]: 157 µM (≈ 376 µg/mL)
CC(=O)N[C@@H](CCCCN=[N+]=[N-])C(=O)NCCC(=O)N[C@@H](CC(C)C)C(=O)N[C@H](C(=O)N[C@@H](Cc1ccccc1)C(=O)N[C@]1(C)CCCCCCC=CCCC[C@@](C)(C(=O)N[C@@H](C)C(=O)N[C@@H](C)C(=O)N[C@@H](Cc2ccccc2)C(=O)N[C@@H](C)C(=O)N[C@@H](C)C(=O)N[C@@H](Cc2ccccc2)C(N)=O)NC(=O)[C@H](CC2CCC2)NC(=O)[C@H](CCC(N)=O)NC(=O)[C@H](C)NC(=O)[C@H](Cc2c[nH]c3ccccc23)NC(=O)[C@H](Cc2ccc(O)cc2)NC(=O)[C@H](CCC(=O)O)NC1=O)[C@@H](C)O [MP-040] (Ac-[Lys(N3)][βAla]LTF[R8]EYWAQ[Cba][S5]AAFAAF-NH2; staple 6-13)	–	–	–	–	–	–	> 49.8 µM	1.22 µM	0.439 µM	–	–	204 A^2	> 50.7 µM	Partition Coeff LogD [5]: Poorly Behaved; Solubility [6]: P.B.; Solubility ([6]; pH 7, PBS): Poorly Behaved
CC(=O)N[C@@H](CCCCN=[N+]=[N-])C(=O)NCCC(=O)N[C@@H](CC(C)C)C(=O)N[C@H](C(=O)N[C@@H](Cc1ccccc1)C(=O)N[C@]1(C)CCCCCCC=CCCC[C@@](C)(C(=O)N[C@@H](CO)C(=O)N[C@@H](C)C(=O)N[C@@H](CCC(=O)O)C(N)=O)NC(=O)[C@H](CC2CCC2)NC(=O)[C@H](CCC(N)=O)NC(=O)[C@H](C)NC(=O)[C@H](Cc2c[nH]c3ccccc23)NC(=O)[C@H](Cc2ccc(O)cc2)NC(=O)[C@H](CCC(=O)O)NC1=O)[C@@H](C)O [MP-524]	–	–	–	–	–	–	> 49.8 µM	1.34 µM	1.32 µM	2.1	148 µM (≈ 300 µg/mL)	–	> 50.7 µM	EPSA (EPSA): Poorly Behaved
